Measurements from PMC9841576, “Characterisation of C101248: A novel selective THIK-1 channel inhibitor for the modulation of microglial NLRP3-inflammasome” (Neuropharmacology, 2023).

Columns and labels:
TWIK-2 = molecular target: T1, TWIK-2 (Homo sapiens, UniProt Q9Y257); assay: FLIPR thallium influx assay, HEK-hTWIK-2 cells; format: cell-based; details: HEK-hTWIK-2, at 30 μM, compared to TPA controls; read-out: inhibition of constitutive activity
T1 construct: expressed in transfected cells
Protocol: HEK-293 cells were transfected with human THIK-1, TREK-1, TWIK-2, or mouse THIK-1 cDNA cloned into pcDNA3.1, using either Fugene HD transfection reagent (Promega) or electroporation (MaxCyte STX instrument). Cells stably expressing the relevant genes were selected based on resistance to 500 μg/ml geneticin (Gibco). For human THIK-1 and TWIK-2 expressing cells, monoclonal lines were isolated by limited dilution cloning; mouse THIK-1 and human TREK-1 expressing cells were maintained as polyclonal pools. The HEK-293 pools and monoclones stably expressing the relevant genes were maintained in DMEM (Life Technologies), supplemented with 10% FCIII (HyClone, Fetal clone III) and 500 μg/ml geneticin. A CHO-Kv2.1 cell line was purchased from Millipore (accession NM_004975) and maintained in F12 (Life Technologies), supplemented with 10% FCSIII (Thermo Scientific) and 500 μg/ml geneticin (Life Technologies). […]
A fluorescence-based thallium influx assay (Molecular Devices potassium assay kit) was used to monitor channel activity. […] Using a fluorescent imaging plate reader (FLIPR) tetra plate reader, 15 μl thallium stimulus solution was added to the cell plate and the fluorescence signal recorded every second for 1 min (excitation: 470–495 nm, emission: 515–575 nm).

[1] = tested on: other constitutively active resting conductance in microglia; assay: Whole-cell patch clamp of microglia in hippocampal slices: other resting and voltage-dependent currents; format: cell-based, mouse; details: 5 μM
Protocol: Acute hippocampal slices (300 μm thick), from 3 to 4 months old mice, were prepared using a specially adapted protective slicing solution ([Ting et al., 2014]) containing (mM) 93 choline chloride, 20 HEPES, 30 NaHCO3, 2.5 KCl, 0.5 CaCl2, 10 MgCl2, 1.2 NaH2PO4, 25 glucose, 1 kynurenic acid, 5 Na-ascorbate, 3 Na-pyruvate, pH adjusted to 7.4, bubbled with 95% O2/5% CO2 and cooled at <4 °C, and a recovery solution containing (mM) 92 NaCl, 20 HEPES, 30 NaHCO3, 2.5 KCl, 2 CaCl2, 1 MgCl2, 1.2 NaH2PO4, 25 glucose, 1 kynurenic acid, 5 Na-ascorbate, 3 Na-pyruvate, pH set to 7.4 and bubbled with 95% O2/5% CO2
Immediately after slicing, slices were placed for 13 min in warm (33–35 °C) slicing solution and then transferred to recovery solution at room temperature until experimental usage. […] Slices were perfused with bicarbonate-buffered solution, at 34–36 °C for all experiments, containing (mM) 124 NaCl, 2.5 KCl, 26 NaHCO3, 1 NaH2PO4, 2 CaCl2, 1 MgCl2, 10 glucose, bubbled with 95% O2/5% CO2. Microglia were whole-cell clamped with electrodes containing K-gluconate based solution, comprising (mM) 130 K-glu, 4 NaCl, 1 CaCl2, 10 HEPES, 10 EGTA, 4 MgATP, 0.5 Na2GTP, pH set to 7.2 with KOH and osmolarity adjusted to […]. […] Currents were filtered at 1 kHz, digitized (10 kHz) and analysed off-line using pClamp10 software.

T1 sequence (Q9Y257 whole entry): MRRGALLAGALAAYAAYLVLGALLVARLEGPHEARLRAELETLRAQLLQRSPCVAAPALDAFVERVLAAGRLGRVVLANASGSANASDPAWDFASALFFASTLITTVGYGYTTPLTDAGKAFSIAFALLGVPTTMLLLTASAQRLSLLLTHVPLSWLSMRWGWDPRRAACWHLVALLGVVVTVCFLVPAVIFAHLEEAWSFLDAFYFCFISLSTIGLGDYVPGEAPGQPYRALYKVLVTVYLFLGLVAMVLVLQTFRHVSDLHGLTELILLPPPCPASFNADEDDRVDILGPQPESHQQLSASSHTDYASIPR

inhibition at 30 µM (TWIK-2): 7%
Structure (SMILES): Nc1nonc1-c1nc2ccccc2n1Cc1ccncc1 [C101248]
effect on baseline membrane current in THIK-1 KO mice ([1]; microglia voltage-clamped at 0 mV, THIK-1 KO mice): no further changes
effect on inward or outward currents induced by depolarising voltage steps ([1]; voltage steps −150 mV to +60 mV): no effect
